The source of these data is patent publication US20110269834A1 (priority 2008, published 2011).

Read-outs that look alike come from different tables or passages of the source.

By IC50 is commonly meant the concentration at which inhibition is half-maximal. What is called EC50 is the concentration that produces a half-maximal response. The inhibition is the change of the read-out against control, counted positive when it falls.

In data set [1] the target is T1, SARS-CoV PLpro (Severe acute respiratory syndrome coronavirus, UniProt P0C6X7). In words: biochemical. To be noted: for inhibition at 100 µM: read-out: inhibition of PLpro activity.
In a further data set the test system is SARS-CoV. In words: microbe, parasite or virus in culture. The format is cell-based, SARS-CoV Urbani strain.
The target in data set [2] is T1, SARS-CoV PLpro. In words: biochemical. The following applies: read-out: percent inhibition of PLpro in primary screen.
Another data set has as its target T2, HAUSP (Homo sapiens, UniProt Q93009).
T2 construct: purchased Boston Biochem
In words: Inhibitor specificity assay, HAUSP. The format is biochemical. To be noted: Table 6; assayed with 100 μM inhibitor, ubiquitin-AMC substrate.

The next data set addresses T3, hUCH-L1 (Homo sapiens, UniProt P09936).
T3 construct: purchased Biomol International
T3 sequence (P09936 1-223): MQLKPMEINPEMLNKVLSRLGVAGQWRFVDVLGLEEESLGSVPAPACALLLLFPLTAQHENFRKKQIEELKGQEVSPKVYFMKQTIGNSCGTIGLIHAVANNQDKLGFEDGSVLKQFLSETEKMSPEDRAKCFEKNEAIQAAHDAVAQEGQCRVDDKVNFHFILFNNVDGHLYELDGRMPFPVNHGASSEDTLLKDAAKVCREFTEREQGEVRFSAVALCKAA
In words: Inhibitor specificity assay, UCH-L1. The format is biochemical. The following applies: Table 6; assayed with 100 μM inhibitor, ubiquitin-AMC substrate.

In a further data set the target is T4, hUCH-L3 (Homo sapiens, UniProt P15374).
T4 construct: purchased Biomol International
T4 sequence (P15374 1-230): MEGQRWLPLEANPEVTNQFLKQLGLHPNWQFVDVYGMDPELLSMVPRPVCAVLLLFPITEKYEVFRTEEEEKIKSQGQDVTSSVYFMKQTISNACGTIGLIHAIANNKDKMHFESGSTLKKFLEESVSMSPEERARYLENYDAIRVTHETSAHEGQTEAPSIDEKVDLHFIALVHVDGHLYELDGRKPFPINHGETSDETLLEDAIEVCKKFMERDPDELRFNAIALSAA
As to the kind of experiment: Inhibitor specificity assay, UCH-L3. The following applies: Table 6; assayed with 100 μM inhibitor, ubiquitin-AMC substrate. It counts as biochemical.

Data set [3] addresses T1, SARS-CoV PLpro. The format is biochemical.
The target of the next data set is T5, hUSP18 (Homo sapiens, UniProt Q9UMW8).
T5 construct: purchased Boston Biochem
T5 sequence (Q9UMW8 1-372): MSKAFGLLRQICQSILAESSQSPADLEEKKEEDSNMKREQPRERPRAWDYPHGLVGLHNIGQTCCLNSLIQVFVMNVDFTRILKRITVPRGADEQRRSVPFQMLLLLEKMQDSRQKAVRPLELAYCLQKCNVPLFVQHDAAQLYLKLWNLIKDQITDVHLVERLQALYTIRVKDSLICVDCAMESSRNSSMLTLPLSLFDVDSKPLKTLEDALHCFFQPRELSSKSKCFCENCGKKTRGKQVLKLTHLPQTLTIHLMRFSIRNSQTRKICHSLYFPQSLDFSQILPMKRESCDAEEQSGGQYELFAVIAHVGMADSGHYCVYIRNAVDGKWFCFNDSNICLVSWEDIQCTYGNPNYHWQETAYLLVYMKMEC
In words: Inhibitor specificity assay, USP18. The format is biochemical. The following applies: Table 6; assayed with 100 μM inhibitor, ISG15-AMC substrate.

Data set [4] addresses T1, SARS-CoV PLpro. The format is biochemical. The source holds these as a separate data set.
[5] abbreviates: read-out: IC50 (μM), enzyme inhibitory activity.
Setting [6] is: Severe acute respiratory syndrome coronavirus, Vero C1008.
The mark [7] stands for this setting: Severe acute respiratory syndrome coronavirus, Vero C1008, 48 h, read-out: EC50 of antiviral activity.

T2 sequence (Q93009 whole entry): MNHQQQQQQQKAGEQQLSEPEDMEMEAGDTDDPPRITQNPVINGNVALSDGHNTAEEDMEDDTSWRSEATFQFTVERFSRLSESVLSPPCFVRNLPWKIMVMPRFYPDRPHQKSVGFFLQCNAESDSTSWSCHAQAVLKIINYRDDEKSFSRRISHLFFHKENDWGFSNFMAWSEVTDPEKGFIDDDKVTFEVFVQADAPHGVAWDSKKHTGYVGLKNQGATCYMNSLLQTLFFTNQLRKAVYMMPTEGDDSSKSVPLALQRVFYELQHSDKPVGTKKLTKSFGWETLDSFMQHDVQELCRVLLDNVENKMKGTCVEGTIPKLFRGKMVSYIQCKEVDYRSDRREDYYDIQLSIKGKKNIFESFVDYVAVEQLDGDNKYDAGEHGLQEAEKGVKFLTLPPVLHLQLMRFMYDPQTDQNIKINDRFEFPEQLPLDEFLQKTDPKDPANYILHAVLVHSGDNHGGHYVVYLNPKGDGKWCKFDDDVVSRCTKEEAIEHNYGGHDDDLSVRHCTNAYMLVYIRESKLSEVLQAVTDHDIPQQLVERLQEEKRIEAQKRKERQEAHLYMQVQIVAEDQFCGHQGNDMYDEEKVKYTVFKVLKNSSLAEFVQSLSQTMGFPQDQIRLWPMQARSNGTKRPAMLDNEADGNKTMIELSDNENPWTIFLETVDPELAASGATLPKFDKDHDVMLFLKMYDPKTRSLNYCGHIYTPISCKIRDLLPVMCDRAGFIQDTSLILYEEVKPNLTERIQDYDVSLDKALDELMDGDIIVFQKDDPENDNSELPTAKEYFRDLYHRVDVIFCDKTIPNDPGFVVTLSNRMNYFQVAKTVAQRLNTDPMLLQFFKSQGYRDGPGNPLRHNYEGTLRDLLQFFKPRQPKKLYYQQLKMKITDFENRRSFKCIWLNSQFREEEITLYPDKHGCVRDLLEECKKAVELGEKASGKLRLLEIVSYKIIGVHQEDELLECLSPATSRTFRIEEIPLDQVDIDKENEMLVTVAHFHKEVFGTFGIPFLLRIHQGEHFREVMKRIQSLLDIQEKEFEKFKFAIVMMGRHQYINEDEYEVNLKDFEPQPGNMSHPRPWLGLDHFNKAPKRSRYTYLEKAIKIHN

On to `Cc1ccccc1C(=O)NC(c1ccccc1)c1ccc2ccccc2c1` (stereo not shown) [Compound 17, 2-Methyl-N-[1-(2-naphthyl)benzyl]benzamide], for which the IC50 on SARS-CoV PLpro [1] (setting [5]) was above 200 µM. In turn, `COc1cccc(CNC(=O)C2CCN([C@@H](C)c3ccc4ccccc4c3)CC2)c1` [Compound 61] registered an IC50 on SARS-CoV PLpro [1] of 13.2 ± 0.6 µM. Moreover, the EC50 with SARS-CoV (setting [6]) was 12 µM. For the compound `Cc1ccccc1C(=O)NC(C)c1ccc2ccccc2c1` (racemic) [Compound 1, 2-methyl-N-[1-(2-naphthyl)ethyl]benzamide], the EC50 in the data set on SARS-CoV (setting [6]) was above 50 µM. Further, the inhibition at 20 µM on SARS-CoV PLpro [2] was above 35%.

Take `Cc1ccc(N)cc1C(=O)N[C@H](C)c1cccc2ccccc12` [Compound 24, 5-Amino-2-methyl-N—[(R)-1-(1-naphthyl)ethyl]benzamide]: the concentration for half-maximal inhibition (IC50) at HAUSP, against hUCH-L1, at hUCH-L3 and on hUSP18 was above 100 µM throughout. Besides, the “PLpro activity recovered after dialysis” value on SARS-CoV PLpro [3] is “Approximately 25%”. Also, the mode of inhibition result on SARS-CoV PLpro [4] is recorded as “competitive inhibitor”. Moreover, the “toxicity in Vero E6 cells” value in the data set on Vero E6 cells is recorded as “without toxicity up to the highest concentration tested”. At SARS-CoV PLpro [1], `Cc1cc(N)ccc1C(=O)NC(C)c1ccnc2ccccc12` (racemic) [Compound 52] had an IC50 of 2.3 µM. As for `COc1ccc(CNC(=O)C2CCN([C@H](C)c3cccc4ccccc34)CC2)cc1` [Compound 63], the 50% inhibitory concentration (IC50) at SARS-CoV PLpro [1] (read-out: IC50) is 0.34 µM. For the same compound, the EC50 with SARS-CoV (setting [6]) was 10 µM. `Cc1ccccc1C(=O)N[C@H](C)c1cccc2ccccc12` [Compound 5h, 2-Methyl-N—[(R)-1-(1-naphthyl)ethyl]benzamide]: the IC50 on hUCH-L1 and against hUCH-L3 was above 100 µM throughout. Further, the values for the EC50 in the data set on SARS-CoV (setting [6]) and with SARS-CoV (setting [7]) were 10 ± 1.2 µM and 10 to 15 µM, respectively. For the same compound, in the data set with Vero E6 cells, the “toxicity in Vero E6 cells” value is “without toxicity up to the highest concentration tested”.

Regarding `COc1cccc(CNC(=O)C2CCN([C@H](C)c3ccc4ccccc4c3)CC2)c1` [Compound 62], on SARS-CoV PLpro [1], half-maximal inhibition (IC50) was put at 5.8 ± 0.1 µM.

In the case of `Cc1ccc([N+](=O)[O-])cc1C(=O)N[C@H](C)c1cccc2ccccc12` [Compound 5i, 2-Methyl-5-nitro-N—[(R)-1-(1-naphthyl)ethyl]benzamide], at SARS-CoV PLpro [1], the IC50 was found to be 7.3 ± 0.9 µM and the “fold decrease in activity compared to 5h” value is around 3 fold. For the same compound, in the data set with SARS-CoV (setting [6]), the concentration giving a half-maximal response (EC50) was above 50 µM. `C[C@@H](NC(=O)c1ccc(NC(=O)OC(C)(C)C)cc1)c1ccc2ccccc2c1` [Compound 8, 4-N^0-tert-Butoxycarbonylamino-N—[(R)-1-(2-naphthyl)ethyl]-benzamide] yielded an IC50 against SARS-CoV PLpro [1] above 200 µM. As for `CNCc1ccc(C)c(C(=O)N[C@H](C)c2cccc3ccccc23)c1` [Compound 49], the EC50 with SARS-CoV (setting [6]) came out at 5.2 ± 0.3 µM. The same measure, in the same setting: in the case of `C[C@H](c1cccc2ccccc12)N1CCC(C(=O)NCc2ccc3c(c2)OCO3)CC1` [Compound 69] it was 3 µM. For the compound `CC(=O)Nc1ccc(C)c(C(=O)N[C@H](C)c2cccc3ccccc23)c1` [Compound 25, 5-N-Acetylamino-2-methyl-N—[(R)-1-(1-naphthyl)ethyl]benzamide], the IC50 was 2.64 ± 0.04 µM at SARS-CoV PLpro [1] (read-out: IC50); 2.64 ± 0.04 µM on SARS-CoV PLpro [1] (setting [5]); 2.6 µM on SARS-CoV PLpro [1] (read-out: IC50 values (μM) PLpro); above 100 µM against hUCH-L1; above 100 µM on hUCH-L3. Also, the figures for the EC50 in the data set with SARS-CoV (setting [6]) and in the data set on SARS-CoV (setting [7]) were 13.1 ± 0.7 µM and 10 to 15 µM, respectively. Moreover, the “toxicity in Vero E6 cells” value with Vero E6 cells is “without toxicity up to the highest concentration tested”. In the case of `COc1cccc(CNC(=O)C2CCN([C@H](C)c3cccc4ccccc34)CC2)c1` [Compound 64], the IC50 on SARS-CoV PLpro [1] (read-out: IC50) came to 0.34 µM. In the data set on SARS-CoV (setting [6]), this compound showed an EC50 of 8 µM. Turning to `C[C@@H](NC(=O)c1ccccc1Cl)c1ccc2ccccc2c1` [Compound 3, 2-Chloro-N—[(R)-1-(2-naphthyl)ethyl]benzamide], on SARS-CoV PLpro [1], half-maximal inhibition (IC50) was put at 14.5 ± 0.9 µM and the “fold decrease in inhibitory potency compared to 1b” value amounted to 2 fold. This compound displayed an EC50 in the data set with SARS-CoV (setting [6]) above 50 µM. `C[C@@H](NC(=O)c1ccccc1O)c1ccc2ccccc2c1` [Compound 5g, 2-Hydroxy-N—[(R)-1-(2-naphthyl)ethyl]benzamide] gave an IC50 against SARS-CoV PLpro [1] above 200 µM. On the same count and under the same terms, in the case of `CCc1ccccc1C(=O)N[C@H](C)c1ccc2ccccc2c1` [Compound 4, 2-Ethyl-N—[(R)-1-(2-naphthyl)ethyl]benzamide] it was above 200 µM.

Turning to `Cc1cc([N+](=O)[O-])ccc1C(=O)NC(C)c1ccnc2ccccc12` (racemic) [Compound 51], inhibition on SARS-CoV PLpro [1] was half-maximal at 3.5 µM (IC50). The compound `Cc1ccc(N)cc1C(=O)NC(C)(C)c1cccc2ccccc12` [Compound 29, 5-Amino-2-methyl-N-[1-methyl-1-(1-naphthyl)ethyl]benzamide] gave an EC50 with SARS-CoV (setting [6]) above 50 µM.

Turning to `Cc1ccccc1C(=O)N[C@@H](C)c1ccc2ccccc2c1` [Compound 1a], the inhibition at 100 µM at SARS-CoV PLpro [1] was 14%.

With `CCC(NC(=O)c1ccccc1C)c1ccc2ccccc2c1` (racemic) [Compound 14, 2-Methyl-N-[1-(2-naphthyl)propyl]benzamide], the IC50 on SARS-CoV PLpro [1] is above 200 µM.

The compound `Cc1ccc(CNC(=O)OC(C)(C)C)cc1C(=O)N[C@H](C)c1cccc2ccccc12` [Compound 47, 5-N-tert-Butoxycarbonylmethylamino-2-methyl-N^0—[(R)-1-(1-naphthyl)ethyl]benzamide] showed an EC50 in the data set with SARS-CoV (setting [6]) above 50 µM. With `C[C@@H](c1cccc2ccccc12)N1CCC(C(=O)NCc2ccc3c(c2)OCO3)CC1` [Compound 68], the IC50 at SARS-CoV PLpro [1] (read-out: IC50) was 0.56 µM. In the data set on SARS-CoV (setting [6]), this compound showed a concentration for a half-maximal effect (EC50) of 3 µM. Turning to `Cc1ccccc1C(=O)N[C@H](C)c1ccc2ccccc2c1` [Compound 1b, 2-Methyl-N—[(R)-1-(2-naphthyl)ethyl]benzamide], the inhibition at 100 µM on SARS-CoV PLpro [1] is above 90%. In the data set on SARS-CoV (setting [6]), this compound had an EC50 above 50 µM. Regarding “5-Methylamino-2-methyl-N—[(R)-1-(1-naphthyl)ethyl]benzamide [Compound 2]”, the EC50 with SARS-CoV (Table 5, antiviral activity against SARS-CoV, highest concentration tested 50 uM, read-out: EC50) was found to be 6 ± 0.1 µM. `Cc1ccc(N)cc1C(=O)NC(C)c1ccnc2ccccc12` (racemic) [Compound 50] showed an IC50 at SARS-CoV PLpro [1] of 1.85 µM. Regarding `COc1ccccc1CNC(=O)C1CCN([C@H](C)c2cccc3ccccc23)CC1` [Compound 67], the IC50 on SARS-CoV PLpro [1] (read-out: IC50) is 1.21 ± 0.04 µM. Consider `Cc1cccc(C(=O)N[C@H](C)c2ccc3ccccc3c2)c1` [Compound 5a, 3-Methyl-N—[(R)-1-(2-naphthyl)ethyl]benzamide], for which, in the data set on SARS-CoV (setting [6]), the 50% effective concentration (EC50) was above 50 µM.
